According to patent US20200345010A1, “FUNGICIDAL OXADIAZOLES” (FMC Corporation, priority 2019, published 2020):

Tests used:
Phakopsora pachyrhizi = test: Test A: Asian soybean rust control on soybean seedlings; assay type: in vivo; conditions: soybean seedlings sprayed the day before inoculation, 100 = 100% disease control, 0 = none
Text: (§1) General protocol for preparing test suspensions for Tests A-C: the test compounds were first dissolved in acetone in an amount equal to 3% of the final volume and then suspended at the desired concentration (in ppm) in acetone and purified water (50/50 mix by volume) containing 250 ppm of the surfactant PEG400 (polyhydric alcohol esters). The resulting test suspensions were then used in Tests A-C.
(§2) The test solution was sprayed to the point of run-off on soybean seedlings. The following day the seedlings were inoculated with a spore suspension of Phakopsora pachyrhizi (the causal agent of Asian soybean rust) and incubated in a saturated atmosphere at 22° C. for 24 h, and then moved to a growth chamber at 22° C. for 8 days, after which time visual disease ratings were made.
(§3) A rating of 100 indicates 100% disease control and a rating of 0 indicates no disease control (relative to the controls). A dash (-) indicates the compound was not tested.

[1] = tested on: Puccinia recondita f. sp. tritici; test: Test C: wheat leaf rust control on wheat seedlings; assay type: in vivo; conditions: wheat seedlings sprayed the day before inoculation, 100 = 100% disease control, 0 = none
Text: as §1
as §2, with “wheat” for “soybean”, “Puccinia recondita f. sp. tritici” for “Phakopsora pachyrhizi”, “wheat leaf” for “Asian soybean”, “20°” for “22°”, “7” for “8”, “time” for “time visual”
as §3

CS(=O)(=NCc1ccc(-c2noc(C(F)(F)F)n2)cc1)c1ccccc1 (single isomer, unassigned) [Compound 8]
Test A disease control rating (Phakopsora pachyrhizi; 10 ppm test suspension): 100% | Test C disease control rating ([1]; 10 ppm test suspension): 68%

CS(=O)(=NCc1ccc(-c2noc(C(F)(F)F)n2)cc1)c1ccccc1 (single isomer, unassigned) [Compound 23]
Test A disease control rating (Phakopsora pachyrhizi; 50 ppm test suspension): 100% | Test C disease control rating ([1]; 50 ppm test suspension): 85%

CS(C)(=O)=Nc1ccc(-c2noc(C(F)(F)F)n2)cc1 [Compound 1]
Test A disease control rating (Phakopsora pachyrhizi; 10 ppm test suspension): 73% | Test C disease control rating ([1]; 10 ppm test suspension): 0%

CS(=O)(=NCc1ccc(-c2noc(C(F)(F)F)n2)cc1)c1ccc(Cl)cc1 (centres unmarked) [Compound 3]
Test A disease control rating (Phakopsora pachyrhizi; 10 ppm test suspension): 94% | Test C disease control rating ([1]; 10 ppm test suspension): 0%

CS(=O)(=NCc1ccc(-c2noc(C(F)(F)F)n2)cc1)c1ccccn1 (centres unmarked) [Compound 4]
Test A disease control rating (Phakopsora pachyrhizi; 10 ppm test suspension): 98% | Test C disease control rating ([1]; 10 ppm test suspension): 74%

CS(=O)(=Nc1ccc(-c2noc(C(F)(F)F)n2)cc1)c1ccccn1 (centres unmarked) [Compound 6]
Test A disease control rating (Phakopsora pachyrhizi; 10 ppm test suspension): 99% | Test C disease control rating ([1]; 10 ppm test suspension): 74%

CS(=O)(=NCc1ccc(-c2noc(C(F)(F)F)n2)cc1)c1ccc(Br)cc1 (centres unmarked) [Compound 9]
Test A disease control rating (Phakopsora pachyrhizi; 10 ppm test suspension): 92% | Test C disease control rating ([1]; 10 ppm test suspension): 0%

CS(=O)(=NCc1ccc(-c2noc(C(F)(F)F)n2)cc1)c1ccc(C#N)cc1 (centres unmarked) [Compound 10]
Test A disease control rating (Phakopsora pachyrhizi; 10 ppm test suspension): 100% | Test C disease control rating ([1]; 10 ppm test suspension): 55%

CS(=O)(=NCc1ccc(-c2noc(C(F)(F)F)n2)cc1)c1ccc(C(F)(F)F)cc1 (centres unmarked) [Compound 11]
Test A disease control rating (Phakopsora pachyrhizi; 10 ppm test suspension): 99% | Test C disease control rating ([1]; 10 ppm test suspension): 0%

O=S1(=NCc2ccc(-c3noc(C(F)(F)F)n3)cc2)CCOCC1 [Compound 14]
Test A disease control rating (Phakopsora pachyrhizi; 10 ppm test suspension): 99% | Test C disease control rating ([1]; 10 ppm test suspension): 91%

COC(=O)CCS(=O)(=NCc1ccc(-c2noc(C(F)(F)F)n2)cc1)c1ccccc1 (centres unmarked) [Compound 18]
Test A disease control rating (Phakopsora pachyrhizi; 10 ppm test suspension): 84% | Test C disease control rating ([1]; 10 ppm test suspension): 0%

O=S(CCC(F)(F)F)(=NCc1ccc(-c2noc(C(F)(F)F)n2)cc1)c1ccccc1 (centres unmarked) [Compound 19]
Test A disease control rating (Phakopsora pachyrhizi; 10 ppm test suspension): 85% | Test C disease control rating ([1]; 10 ppm test suspension): 0%

CS(=O)(=Nc1ccc(-c2noc(C(F)(F)F)n2)cc1)c1ccncc1 (centres unmarked) [Compound 20]
Test A disease control rating (Phakopsora pachyrhizi; 10 ppm test suspension): 98% | Test C disease control rating ([1]; 10 ppm test suspension): 89%

CS(=O)(Cc1ccccc1)=Nc1ccc(-c2noc(C(F)(F)F)n2)cc1 (centres unmarked) [Compound 22]
Test A disease control rating (Phakopsora pachyrhizi; 10 ppm test suspension): 54% | Test C disease control rating ([1]; 10 ppm test suspension): 89%

CS(=O)(=Nc1ccc(-c2noc(C(F)(F)F)n2)cc1)c1ccsc1 (centres unmarked) [Compound 25, N-(methyloxido-3-thienyl-λ^4-sulfanylidene)-4-[5-(trifluoromethyl)-1,2,4-oxadiazol-3-yl]benzenamine]
Test A disease control rating (Phakopsora pachyrhizi; 10 ppm test suspension): 100% | Test C disease control rating ([1]; 10 ppm test suspension): 86%

CS(=O)(=Nc1ccc(-c2noc(C(F)(F)F)n2)cc1)c1ccc2ccccc2c1 (centres unmarked) [Compound 30]
Test A disease control rating (Phakopsora pachyrhizi; 10 ppm test suspension): 0% | Test C disease control rating ([1]; 10 ppm test suspension): 74%

CCCS(=O)(=NCc1ccc(-c2noc(C(F)(F)F)n2)cc1)c1ccccc1 (centres unmarked) [Compound 32]
Test A disease control rating (Phakopsora pachyrhizi; 10 ppm test suspension): 99% | Test C disease control rating ([1]; 10 ppm test suspension): 0%

CS(C)(=O)=NCCc1ccc(-c2noc(C(F)(F)F)n2)cc1 [Compound 33, N-(dimethyloxido-λ^4-sulfanylidene)-4-[5-(trifluoromethyl)-1,2,4-oxadiazol-3-yl]benzeneethanamine]
Test A disease control rating (Phakopsora pachyrhizi; 10 ppm test suspension): 99% | Test C disease control rating ([1]; 10 ppm test suspension): 68%

CCS(=O)(CC)=NCc1ccc(-c2noc(C(F)(F)F)n2)cc1 [Compound 34]
Test A disease control rating (Phakopsora pachyrhizi; 10 ppm test suspension): 100% | Test C disease control rating ([1]; 10 ppm test suspension): 41%

CCCS(=O)(Cc1ccccc1)=Nc1ccc(-c2noc(C(F)(F)F)n2)cc1 (centres unmarked) [Compound 35]
Test A disease control rating (Phakopsora pachyrhizi; 10 ppm test suspension): 0% | Test C disease control rating ([1]; 10 ppm test suspension): 0%

CCCS(=O)(Cc1ccccc1)=NCc1ccc(-c2noc(C(F)(F)F)n2)cc1 (centres unmarked) [Compound 36]
Test A disease control rating (Phakopsora pachyrhizi; 10 ppm test suspension): 100% | Test C disease control rating ([1]; 10 ppm test suspension): 0%

O=S1(=NCc2ccc(-c3noc(C(F)(F)F)n3)cc2)CCCCC1 [Compound 43]
Test A disease control rating (Phakopsora pachyrhizi; 50 ppm test suspension): 100% | Test C disease control rating ([1]; 50 ppm test suspension): 99%
